Measured values taken from patent publication US12012390B2, “Flavone compounds for the treatment and prophylaxis of hepatitis B virus disease” (priority 2018, dated 2024).
Read-outs that look alike come from different tables or passages of the source.

Columns and labels:
[1] = system: HBV in primary human hepatocytes (PHH); experiment: Cryopreserved primary human hepatocytes (PHH) HBV infection assay; format: cell-based; conditions: HBV-infected cryopreserved PHH, 9 days post-compound treatment, extracellular HBsAg by CLIA, read-out: HBsAg IC50
Procedure: This assay is used to confirm the anti-HBV effect of the compounds in HBV PHH infection assay. Cryopreserved PHH (BioreclamationIVT, Lot YJM) was thawed at 37° C. and gently transferred into pre-warmed InVitroGRO HT medium (BioreclamationIVT, Cat. S03317). The mixture was centrifuged at 70 relative centrifugal force (RCF) for 3 minutes at RT, and the supernatant was discarded. Pre-warmed InVitroGRO CP medium (BioreclamationIVT, Cat #S03316) was added to the cell pellet to gently re-suspend cells. The cells were seeded at the density of 5.8×10^4 cells per well to collagen I coated 96-well plate (Gibco, Cat. A1142803) with the InVitroGRO CP medium. All plates were incubated at 37° C. with 5% CO2 and 85% humidity.
At 20 hours after plating, the medium was changed to PHH culture medium (Dulbecco's Modified Eagle Medium (DMEM)/F12 (1:1) (Gibco, Cat. 11320-033), 10% fetal bovine serum (Gibco Cat. 10099141), 100 U/mL penicillin, 100 μg/mL streptomycin (Gibco, Cat. 151401-122), 5 ng/mL human epidermal growth factor (Invitrogen Cat. PHG0311L), 20 ng/mL dexamethasone (Sigma, Cat. D4902) and 250 ng/mL human recombinant insulin (Gibco, Cat. 12585-014)). And the cells were incubated at 37° C. with 5% CO2 and 85% humidity for 4 hours. The medium was then changed to pre-warmed PHH culture medium containing 4% polyethylene glycol (PEG) MW8000 (Sigma, Cat. P1458-50ML) and 1% DMSO (Sigma, Cat. D2650). 5.8×10^6 genomic equivalents of HBV were added into the medium.
At 24 hours post-infection, the cells were gently washed with PBS and refreshed with PHH culture medium supplemented with 1% DMSO, and 0.25 mg/mL Matrix gel (Corning, Cat. 356237) at 200 μL per well. All plates were immediately placed in at 37° C. CO2 incubator.
24 hours later, serial dilutions of compounds made with DMSO were further diluted with the same culture medium (PHH culture medium supplemented with 1% DMSO and 0.25 mg/mL Matrix gel as described above) before they were added to the cells to reach desired final compound concentrations and 1% DMSO concentration. The medium containing the compounds were refreshed every three days.
At 9 days post-compound treatment, extracellular HBsAg level were measured with Chemiluminescence Immuno Assay (CLIA) kit (Autobio, HBsAg Quantitative CLIA). Extracellular HBV DNA was extracted by MagNA Pure 96 system (Roche) and then determined by quantitative PCR with the following primers and probe: […]
HBsAg IC50 and HBV DNA IC50 values were derived from the dose-response curve using 4 parameter logistic curve fit method. The compounds of formula (I) have HBsAg IC50<20 μM, particularly <1 μM; and HBV DNA IC50<50 μM. Test results of the compounds of this invention as well as the reference compounds in Cryopreserved PHH assay are given in Table 2 and Table 3.

[2] = system: HBeAg level (surrogate marker for cccDNA) in HepDES19 cells; experiment: Engineered HepDES19 primary screen assay (HBeAg as surrogate marker for cccDNA); format: cell-based, HBV
Procedure, shortened: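 HepDES19 cells were induced by Tet withdrawal for 8 days, then exposed to half-log compound dilutions (1% DMSO) for 5 days at 37° C. HBeAg, a cccDNA surrogate, was measured by ELISA; viability by CCK-8. IC50 from 4-parameter logistic fit.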

[3] = Hepatitis B virus, Hepatocyte, 216 h
[4] = Hepatitis B virus, HepDES19, 120 h, read-out: IC50 (HBeAg) in HepDES19 primary screen assay, HepDES19 cells, 5 days incubation with compound, HBeAg by ELISA

SMILES	IC50 [1, 3] [nM]	IC50 [2, 4] [nM]	IC50 [1] [nM]	IC50 ([2]; read-out: IC50 (HBeAg) in HepDES19 primary screen assay, HepDES19 cells, 5 days incubation with compound, HBeAg by ELISA) [nM]
O=C(O)C1CC(OCCOc2ccc(-c3oc4c(Cl)cccc4c(=O)c3Cl)cc2)C1 (centres unmarked) [Example 53, 3-[2-[4-(3,8-dichloro-4-oxo-chromen-2-yl)phenoxy]ethoxy]cyclobutanecarboxylic acid]	4010	22000	–	–
O=C(O)C1CC(OCCOc2ccc(-c3oc4c(Cl)cc(F)cc4c(=O)c3OC(F)(F)F)cc2)C1 (centres unmarked) [Example 63, 3-[2-[4-[8-chloro-6-fluoro-4-oxo-3-(trifluoromethoxy)chromen-2-yl]phenoxy]ethoxy]cyclobutanecarboxylic acid]	5360	1810	–	–
O=c1cc(-c2ccc(OCCO[C@H]3C[C@@H](C(=O)O)C3)cc2)oc2c(Br)cccc12 [Example 33, Cis-3-[2-[4-(8-bromo-4-oxo-chromen-2-yl)phenoxy]ethoxy]cyclobutanecarboxylic acid]	680	310	–	–
O=C(O)C1CC(OCCCOc2ccc(-c3cc(=O)c4cccc(Cl)c4o3)cc2)C1 (centres unmarked) [Example 13, 3-[3-[4-(8-chloro-4-oxo-chromen-2-yl)phenoxy]propoxy]cyclobutanecarboxylic acid]	1270	690	–	–
CC(C)(COCCOc1ccc(-c2cc(=O)c3cccc(Cl)c3o2)cc1)C(=O)O [Example 11, 3-[2-[4-(8-chloro-4-oxo-chromen-2-yl)phenoxy]ethoxy]-2,2-dimethyl-propanoic acid]	12500	570	–	–
O=C(O)C1CC(OCCOc2ccc(-c3cc(=O)c4cccc(Cl)c4s3)cc2)C1 (centres unmarked) [Example 57, 3-[2-[4-(8-chloro-4-oxo-thiochromen-2-yl)phenoxy]ethoxy]cyclobutanecarboxylic acid]	140	90	–	–
CCOC(=O)C1CC1OCCOc1ccc(-c2cc(=O)c3cccc(Cl)c3o2)cc1 (single isomer, unassigned) [Example 4-B, ethyl 2-[2-[4-(8-chloro-4-oxo-chromen-2-yl)phenoxy]ethoxy]cyclopropanecarboxylate]	–	–	510	5230
O=c1cc(-c2ccc(OCCO[C@H]3C[C@@H](C(=O)O)C3)c(Cl)c2)oc2c(Cl)cccc12 [Example 43, Cis-3-[2-[2-chloro-4-(8-chloro-4-oxo-chromen-2-yl)phenoxy]ethoxy]cyclobutanecarboxylic acid]	220	250	–	–
O=C(O)C1CC(OCCOc2ccc(-c3cc(=O)c4cc(C(F)(F)F)cc(Cl)c4o3)cc2)C1 (single isomer, unassigned) [Example 66-B, 3-[2-[4-[8-chloro-4-oxo-6-(trifluoromethyl)chromen-2-yl]phenoxy]ethoxy]cyclobutanecarboxylic acid]	4780	13200	–	–
O=c1cc(-c2ccc(OCCO[C@H]3C[C@@H](C(=O)O)C3)c(Br)c2)oc2c(Cl)cccc12 [Example 44, Cis-3-[2-[2-bromo-4-(8-chloro-4-oxo-chromen-2-yl)phenoxy]ethoxy]cyclobutanecarboxylic acid]	40	570	–	–
COc1ccc(Cl)c2oc(-c3ccc(OCCO[C@H]4C[C@@H](C(=O)O)C4)cc3)cc(=O)c12 [Example 25, Cis-3-[2-[4-(8-chloro-5-methoxy-4-oxo-chromen-2-yl)phenoxy]ethoxy]cyclobutanecarboxylic acid]	930	1050	–	–
COc1cc(OCCOC2CC(C(=O)O)C2)ccc1-c1cc(=O)c2cccc(Cl)c2o1 (centres unmarked) [Example 50, 3-[2-[4-(8-chloro-4-oxo-chromen-2-yl)-3-methoxy-phenoxy]ethoxy]cyclobutanecarboxylic acid]	10200	1780	–	–
O=c1cc(-c2ccc(OCCO[C@H]3C[C@@H](C(=O)O)C3)cc2)oc2c(Cl)cccc12 [Example 1-A, cis-3-[2-[4-(8-chloro-4-oxo-chromen-2-yl)phenoxy]ethoxy]cyclobutanecarboxylic acid]	720	140	–	–
